Test system: mice with asthma
Assay: Airway (pulmonary) resistance determination, invasive body plethysmography with methacholine
Type: in vivo, BALB/c mice
Conditions: for pulmonary resistance Rrs (cm H2O/ml): OVA-sensitized BALB/c mice
Description: In Example 2, mice with asthma were used to conduct in vivo experiments, and ovalbumin (OVA) was used as an allergen.
The mice were sensitized (or challenged) according to the steps shown in FIG. 9 (see Lee et al., Lentiviral-mediated GATA-3 RNAi decreases allergic airway inflammation and hyperresponsiveness. Molecular Therapy, 2008; 16:60-65, which is incorporated herein in its entirety by reference). First, 50 μg OVA (using 2 mg alumina (Alum, Alumlmuject, Pierce Chemical, Rockford, Ill., USA) as an adjuvant) was injected into six to eight-week-old BALB/c female mice (from National Laboratory Animal Center, Taiwan) by intraperitoneal injection (i.p.). At 0th, 14th, and 28th day, the mice were injected with OVA at the same dosage. Before the administration of OVA at the forty-first and the forty-second days, different dosages of brazilin (high dose: 430 μg/mice; low dose: 43 μg/mice) were administrated to the mice by intraperitoneal injection (i.p.) or intratracheal instillation (i.t.). During the fortieth to the forty-second days, 100 μg OVA was dissolved in 40 μl PBS, and was administrated to the mice by intranasal instillation (i.n.) (once everyday, for three days). At the forty-third day, airway hyperresponsiveness of the mice was observed. At the forty-sixth day, the mice were sacrificed and used to conduct the following Experiments E to G During the above procedure, it was observed if any toxicity response arises after the administration of brazilin to the mice. In this experiment, the mice administrated with OVA were used as a positive control, and the mice not administrated with OVA were used as a negative control.
Airway (pulmonary) resistance determination was carried out by conducting invasive body plethysmography according to the Glaab's method (see Glaab et al., Repetitive measurements of pulmonary mechanics to inhaled cholinergic challenge in spontaneously breathing mice. J Appl Physiol, 2004; 97:1104-1111, which is incorporated herein in its entirety by reference). In this method, the increase of pulmonary resistance of mice administrated with methacholine is observed.
First, BALB/c mice were anesthetized with 70 to 90 mg/kg-body weight of pentobarbital sodium (Sigma), and the trachea of the mice were cut to generate a bore, and the mice were subjected to external ventilation (150 breaths/minute) with a ventilator (Harvard Rodent Ventilator, model 683, Southnatick, Mass., USA) controlled by a computer to maintain the tidal volume at 0.3 ml and the terminal expiring positive pressure at 3 to 4 cm-H2O. A PE-50 pipeline was inserted into the gullets and reached to the chest position of the mice, and the pipeline was connected to a pressure transducer (LDS GOULD, Valley View, Ohio, USA), and the pressure, air flow rate, and the variation of air capacity in the lungs of the mice were recorded. Software (Model PNM-PCT100W, LDS PONEMAH Physiology Platform, LDS GOULD) was used to analyze the airway resistance. An atomizer was used to generate methacholine spray, which was then administrated to the mice via the ventilator. The data was obtained by deducting the pulmonary resistance (0.45 cm H2O.s.ml^−1) gained by the pipeline inserted into the trachea of the mice, wherein pulmonary resistance RL ratio=RL after methacholine nebulization/RL after PBS nebulization.

Oc1ccc2c(c1)OC[C@]1(O)Cc3cc(O)c(O)cc3[C@H]21 [brazilin]
pulmonary resistance Rrs (cm H2O/ml) (methacholine 3.125 mg/ml, High dose (430 μg/mice)): 2.535 ± 0.1251 cm H2O/ml
pulmonary resistance Rrs (cm H2O/ml) (methacholine 3.125 mg/ml, Low dose (43 μg/mice)): 2.237 ± 0.1567 cm H2O/ml
pulmonary resistance Rrs (cm H2O/ml) (methacholine 6.25 mg/ml, High dose (430 μg/mice)): 2.680 ± 0.1676 cm H2O/ml
pulmonary resistance Rrs (cm H2O/ml) (methacholine 6.25 mg/ml, Low dose (43 μg/mice)): 2.206 ± 0.0665 cm H2O/ml
pulmonary resistance Rrs (cm H2O/ml) (methacholine 12.5 mg/ml, High dose (430 μg/mice)): 3.247 ± 0.1368 cm H2O/ml
pulmonary resistance Rrs (cm H2O/ml) (methacholine 12.5 mg/ml, Low dose (43 μg/mice)): 2.432 ± 0.1259 cm H2O/ml
pulmonary resistance Rrs (cm H2O/ml) (methacholine 25 mg/ml, High dose (430 μg/mice)): 3.691 ± 0.1542 cm H2O/ml
pulmonary resistance Rrs (cm H2O/ml) (methacholine 25 mg/ml, Low dose (43 μg/mice)): 2.869 ± 0.1831 cm H2O/ml
airway resistance of the mice (methacholine challenge, BALB/c mice, result in words): reduced

Reference: patent publication US8796327B2, “Method for inhibiting production of cytokines of T helper cell type II and/or inhibiting production of chemokines using brazilin” (China Medical University, priority 2010, dated 2014)
